The values that follow come from ChEMBL document CHEMBL1127394, “Inhibition of topoisomerase II catalytic activity by pyridoacridine alkaloids from a Cystodytes sp. ascidian: a mechanism for the apparent intercalator-induced inhibition of topoisomerase II” (J Med Chem, 1994).

For assay [1], the target named is DNA topoisomerase II (Homo sapiens) (UniProt P11388+Q02880). The assay can be described thus: Effect of dose dependent inhibition of TOPO II-catalyzed kDNA decatenation in vitro. The following applies: Crithidia fasciculata.
Assay [2] in a line: Differential cytotoxicity was determined from the ratio between BR1(IC50) and xrs-6 (IC50). The assay is classed as functional.
For the next assay, the system named is HCT-116. The assay is described as follows: Tested for the cytotoxicity to inhibit replication assay against the human colon tumor cell line HCT116. The assay is classed as functional, cell-based.
Assay [3] is described as follows: Tested for the cytotoxicity against the repair deficient xrs-6 chinese hamster ovary cell line. The following applies: Cricetulus griseus. The assay is classed as functional, cell-based.
A short description of assay [4]: Concentration required to reduce ethidium bromide fluorescence to 50% of control in presence of calf thymus DNA.

A value given as a limit tells only on which side of the number the result lay.

Regarding `COc1cc([C@@H]2c3cc4c(cc3[C@@H](O[C@@H]3O[C@@H]5CO[C@@H](C)O[C@H]5[C@H](O)[C@H]3O)[C@H]3COC(=O)[C@H]23)OCO4)cc(OC)c1O` [ETOPOSIDE], the IC90 in assay [1] is 68 µM. Further, the Ratio in assay [2] amounted to 7. For the same compound, the results for the IC50 (with HCT-116; in assay [3]) were 2.5 µM and 0.14 µM, respectively.

As to `c1ccc2c(c1)nc1c3nc4ccccc4c4ccnc(c5nccc2c51)c43` [EILATIN], the Concentration for 50% ethidium displacement (C50) in assay [4] was above 100 µM. Besides, it took 5.3 µM to reach half-maximal inhibition in the assay with HCT-116 (IC50).

`CC(C)=CC(=O)NCCc1c2c3c(ccnc3c3ncsc13)-c1ccccc1N2`: in assay [2], the Ratio is given as 1. Also, the Concentration for 50% ethidium displacement (C50) in assay [4] was above 100 µM. The IC50 was 8.3 µM in the assay on HCT-116 and 80 µM in assay [3].

Compound `CC(=O)NCCC1=CC(=O)c2nccc3c2c1nc1ccccc13` showed a concentration for an effect of 90% (IC90) in assay [1] of 8.4 µM. Also, the Ratio in assay [2] was 1. Also, the Concentration for 50% ethidium displacement (C50) in assay [4] is 54 µM. The IC50 in the assay with HCT-116 stood at 1.6 µM; in assay [3], 136 µM.

As for `CC(C)=CC(=O)NCCc1c2c(c3nccc4c3c1Nc1ccccc1-4)NC(=O)CS2`, in assay [2], the Ratio came out at 1. Also, in assay [4], the Concentration for 50% ethidium displacement (C50) is above 100 µM. Besides, the IC50 in the assay on HCT-116 was 16.3 µM; in assay [3] it was 8.1 µM.

In assay [1], `CSC1=C(CCNC(C)=O)c2nc3ccccc3c3ccnc(c23)C1=O` [DIPLAMINE] registered an IC90 of 9.2 µM. Also, in assay [2], the Ratio is recorded as 1. Besides, the Concentration for 50% ethidium displacement (C50) in assay [4] was 21 µM. For the same compound, the IC50 was below 1.4 µM in the assay with HCT-116 and 71.2 µM in assay [3].

For the compound `CC(=O)NCCc1c2c(c3nccc4c3c1Nc1ccccc1-4)NC(=O)CS2` [SHERMILAMINE B], the Ratio in assay [2] was determined as 1. Further, in assay [4], the Concentration for 50% ethidium displacement (C50) was above 100 µM. Moreover, the values for the IC50 (with HCT-116; in assay [3]) were 13.8 µM and 14.9 µM, respectively.

`O=C1c2c(O)ccc(O)c2C(=O)c2c(NCCNCCO)ccc(NCCNCCO)c21` [MITOXANTRONE]: the Ratio in assay [2] is on record as 9. In addition, in assay [3], 0.001 µM corresponded to half-maximal inhibition (IC50).

Take `CC(=O)NCCc1c2c3c(ccnc3c3ncsc13)-c1ccccc1N2` [KUANONIAMINE D]: in assay [2], the Ratio came to 2. Moreover, the Concentration for 50% ethidium displacement (C50) in assay [4] came to 62 µM. Also, the IC50 in the assay on HCT-116 came out at 7.8 µM; in assay [3], 88.9 µM.

`COc1cc(NS(C)(=O)=O)ccc1Nc1c2ccccc2nc2ccccc12` [AMSACRINE] came in with an IC90 in assay [1] of 33 µM. The Ratio in assay [2] stood at 4. Further, the IC50 with HCT-116 turned out to be 6.3 µM; in assay [3], 0.24 µM.

What is called IC90 is the point of the concentration-response curve where the effect stands at 90%. High values mean weaker potency, low ones greater potency. In general, IC50 refers to the concentration that inhibits the measured activity by half. The low end stands for greater potency in that assay, the high end for weaker potency in that assay.
